Source: US7297704B2, “Cycloalkyfused indole, benzothiophene, benzofuran and idene derivatives” (Wyeth, priority 2005, dated 2007)
Counter-ions that a name gives are not always drawn.

How the values were obtained:
h-5-HT-T = h-5-HT-T (Homo sapiens, UniProt P31645); test: h-5-HT-T IC50 (Table 1, no method described)
Human 5-HT1A Receptor [1] = molecular target: T1, Human 5-HT1A Receptor (Homo sapiens, UniProt P08908); test: 8-OH-DPAT binding, human 5-HT1A receptor cell line; details: stably transfected CHO cells, 8-OH-DPAT ligand 1.5 nM; read-out: h5-HT1A Affinity, Ki
T1 construct: expressed in transfected cells; host or cells: CHO cells
T1 sequence (P08908 1-422): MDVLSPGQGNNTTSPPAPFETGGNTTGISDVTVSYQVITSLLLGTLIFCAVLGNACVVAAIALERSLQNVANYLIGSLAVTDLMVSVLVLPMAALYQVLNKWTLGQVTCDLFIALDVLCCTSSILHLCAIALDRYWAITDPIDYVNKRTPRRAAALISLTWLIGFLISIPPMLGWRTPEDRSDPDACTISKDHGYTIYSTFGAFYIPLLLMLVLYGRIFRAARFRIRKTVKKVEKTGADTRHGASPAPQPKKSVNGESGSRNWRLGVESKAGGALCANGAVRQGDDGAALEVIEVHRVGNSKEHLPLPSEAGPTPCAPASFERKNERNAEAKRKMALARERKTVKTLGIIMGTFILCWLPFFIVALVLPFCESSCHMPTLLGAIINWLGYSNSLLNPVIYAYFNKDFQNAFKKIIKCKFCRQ
Description: Stably transfected CHO cells were grown in DMEM containing 10% heat inactivated FBS and non-essential amino acids. Cells were scraped off the plate, transferred to centrifuge tubes, and washed twice by centrifugation (2000 rpm for 10 min., 4° C.) in buffer (50 mM Tris, pH 7.5). The resulting pellets were aliquoted and placed at −80° C. On day of assay, the cells were thawed on ice, and resuspended in buffer. The binding assay was performed in a 96 well microtiter plate in a total volume of […]. Non-specific binding was determined in the presence of […] 5HT; final ligand concentration was 1.5 nM. Following a 30 min. incubation at room temperature, the reaction was terminated by the addition of ice cold buffer and rapid filtration through a GF/B filter presoaked for 30 min. in 0.5% PEI. Compounds were initially tested in a single point assay to determine percent inhibition at […]. Subsequently, Ki values were determined for compounds defined to be active. Percent inhibition Ki was determined by RFComp (Lundon Software), with Serotonin 8-OH-DPAT as the reference compounds.

serotonin transporter = molecular target: T2, serotonin transporter (Rattus norvegicus, UniProt P31652); test: 3H-paroxetine binding to the serotonin transporter, rat frontal cortical membranes; details: values printed in parentheses, 3H-paroxetine 0.1 nM, read-out: rb-5-HH-T, (IC50)
T2 construct: frontal cortical membranes prepared from male S.D. rats; from tissue; host or cells: rat frontal cortex membranes (male Sprague-Dawley)
Description: A protocol similar to that used by Cheetham et al. (Neuropharmacol. 32:737, 1993) was used to determine the affinity of compounds for the serotonin transporter. Briefly, frontal cortical membranes prepared from male S.D. rats were incubated with ^3H-paroxetine (0.1 nM) for 60 min at 25° C. All tubes also contained either vehicle, test compound (one to eight concentrations), or a saturating concentration of fluoxetine (10 μM) to define […]. All reactions are terminated by the addition of ice cold Tris buffer followed by rapid filtration using a Tom Tech filtration device to separate bound from free ^3H-paroxetine. Bound radioactivity was quantitated using a Wallac 1205 Beta Plate® counter. Nonlinear regression analysis was used to determine IC50 values which were converted to Ki values using the method of Cheng and Prusoff (Biochem. Pharmacol. 22: 3099, 1973); […].

Human 5-HT1A Receptor [2] = molecular target: T1, Human 5-HT1A Receptor; test: cAMP RIA in human 5-HT1A receptor cell line; assay type: cell-based; details: CHO cells; for IC50: superscript b, reversal of agonist activity, read-out: c-AMP, (IC50)^b
Description: Stably transfected CHO cells were grown in DMEM containing 10% heat inactivated FBS and non-essential amino acids. The cells were plated at a density of 10^6 cells per well in a 96 well plate and incubated for 2 days in a CO2 incubator. On the second day, the media was replaced with 0.1 ml Krebs and incubated 15 minutes at 37° C. The media was then replaced with Krebs buffer containing 500 uM IBMX and incubated 5 minutes at 37° C. Wells were treated with forskolin (1 uM final conc) followed immediately by test compound (0.1 and 1 uM for initial screen) and incubated for an additional 10 min at 37° C. Reaction was terminated by removal of the media and addition of 0.5 ml ice cold assay buffer (supplied in RIA kit). Plates are stored at −20° C. prior to assessment of cAMP formation by RIA. Compounds shown to have no agonist activities were further analyzed for ability to reverse agonist activity. In separate experiments, 6 concentrations of antagonist were preincubated for 20 min prior to the addition of agonist and forskolin. Cells were harvested as described. The cAMP kit is supplied by Amersham and the RIA is performed as per kit instructions. In the initial screen, percent inhibition of forskolin stimulated cAMP was measured. In the secondary screen, IC50 of reversal of agonist activity was measured. Calculations of IC50 were performed by GraphPad Prism. Serotonin, BMY 7378, Buspirone, and 8-OH-DPAT were used as reference compounds.

Sequence of h-5-HT-T (P31645 whole entry): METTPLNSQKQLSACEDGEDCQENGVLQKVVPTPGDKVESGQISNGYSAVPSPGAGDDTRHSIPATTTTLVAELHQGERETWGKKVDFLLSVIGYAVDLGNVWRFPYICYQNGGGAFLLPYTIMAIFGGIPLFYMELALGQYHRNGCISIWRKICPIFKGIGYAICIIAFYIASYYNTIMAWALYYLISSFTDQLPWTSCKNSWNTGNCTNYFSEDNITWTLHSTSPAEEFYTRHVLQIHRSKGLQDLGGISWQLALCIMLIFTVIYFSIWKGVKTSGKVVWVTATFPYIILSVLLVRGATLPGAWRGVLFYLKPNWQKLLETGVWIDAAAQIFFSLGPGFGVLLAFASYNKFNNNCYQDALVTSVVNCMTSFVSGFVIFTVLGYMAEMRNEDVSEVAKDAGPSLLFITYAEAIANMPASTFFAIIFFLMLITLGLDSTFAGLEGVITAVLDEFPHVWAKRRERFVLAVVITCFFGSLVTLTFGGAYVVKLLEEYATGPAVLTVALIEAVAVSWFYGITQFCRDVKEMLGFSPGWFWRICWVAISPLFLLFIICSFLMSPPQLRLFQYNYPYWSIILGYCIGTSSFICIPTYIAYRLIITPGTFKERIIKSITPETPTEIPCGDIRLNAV
T2 sequence (P31652 whole entry): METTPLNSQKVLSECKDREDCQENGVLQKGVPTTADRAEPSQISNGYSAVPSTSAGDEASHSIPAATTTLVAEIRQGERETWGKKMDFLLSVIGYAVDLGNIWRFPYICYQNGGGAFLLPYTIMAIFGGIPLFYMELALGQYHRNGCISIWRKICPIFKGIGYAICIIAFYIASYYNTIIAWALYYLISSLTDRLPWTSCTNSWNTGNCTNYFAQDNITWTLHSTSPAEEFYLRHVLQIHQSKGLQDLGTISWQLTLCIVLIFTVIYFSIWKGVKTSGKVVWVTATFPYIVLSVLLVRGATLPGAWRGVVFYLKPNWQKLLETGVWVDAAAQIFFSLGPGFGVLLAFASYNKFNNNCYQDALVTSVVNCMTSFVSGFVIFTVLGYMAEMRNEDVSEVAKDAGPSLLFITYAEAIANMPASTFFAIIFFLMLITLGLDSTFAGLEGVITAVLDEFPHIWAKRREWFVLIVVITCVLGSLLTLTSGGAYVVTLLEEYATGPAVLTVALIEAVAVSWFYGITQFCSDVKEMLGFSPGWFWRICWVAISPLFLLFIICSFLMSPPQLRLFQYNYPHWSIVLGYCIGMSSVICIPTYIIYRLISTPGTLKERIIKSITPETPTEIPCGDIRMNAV

SMILES | IC50 (h-5-HT-T) [µM] | Ki (Human 5-HT1A Receptor [1]) [µM] | IC50 (serotonin transporter) [µM] | melting point [°C] | IC50 (Human 5-HT1A Receptor [2]) [µM] | EC50 (Human 5-HT1A Receptor [2]; superscript a, forskolin stimulated cAMP, read-out: c-AMP, (EC50)^a) [µM] | Emax (Human 5-HT1A Receptor [2]; superscript c, forskolin stimulated cAMP, read-out: c-AMP, (Emax)^c) [%]
Cc1ccc2c3c(ccc2n1)OC[C@H](CN(C[C@H]1CCc2[nH]c4ccc(F)cc4c2C1)C(C)C)O3 [Example 61, N-{[(3S)-6-Fluoro-2,3,4,9-tetrahydro-1H-carbazol-3-yl]methyl}-N-{[(2S)-8-methyl-2,3-dihydro[1,4]dioxino[2,3-f]quinolin-2-yl]methyl}propan-2-amine monohydrochloride monohydrate] | 1.7 ± 0.046 | – | – | – | – | – | –
Cc1ccc2c3c(ccc2n1)OC[C@H](CNCC1CCc2c([nH]c4ccc(F)cc24)C1)O3 (stereo partly drawn) [Example 1, N-[(6-fluoro-2,3,4,9-tetrahydro-1H-carbazol-2-yl)methyl]-N-{[(2S)-8-methyl-2,3-dihydro[1,4]dioxino[2,3-f]quinolin-2-yl]methyl}amine] | – | 0.00223 | 0.0494 | 92 to 96 | 0.0152 | – | –
Cc1ccc2c3c(ccc2n1)OC[C@H](CNCC1CCc2[nH]c4cc(F)ccc4c2C1)O3 (stereo partly drawn) [Example 13, N-[(7-fluoro-2,3,4,9-tetrahydro-1H-carbazol-3-yl)methyl]-N-{[(2S)-8-methyl-2,3-dihydro[1,4]dioxino[2,3-f]quinolin-2-yl]methyl}amine] | – | 0.0018 | 0.12 | 89 to 97 | 0.0221 | – | –
Cc1ccc2c3c(ccc2n1)OCC(CN(CC1CCc2c(c4cc(F)ccc4n2C)C1)C(C)C)O3 [Example 65, N-[(6-Fluoro-9-methyl-2,3,4,9-tetrahydro-1H-carbazol-3-yl)methyl]-N-([(2S)-8-methyl-2,3-dihydro[1,4]dioxino[2,3-f]quinolin-2-yl]methylpropan-2-aminemonohydrochloride monohydrate] | 0.403 ± 0.029 | – | – | – | – | – | –
Cc1ccc2c3c(ccc2n1)OC[C@H](CN(CC1CCc2c(c4cc(F)ccc4n2C)C1)C1CCCC1)O3 (stereo partly drawn) [Example 66, N-[(6-Fluoro-9-methyl-2,3,4,9-tetrahydro-1H-carbazol-3-yl)methyl]-N-{[(2S)-8-methyl-2,3-dihydro[1,4]dioxino[2,3-f]quinolin-2-yl]methyl}cyclopentanamine monohydrochloride monohydrate] | 0.0623 ± 0.00919 | – | – | – | – | 0.163 | 67.5
Cc1ccc2c3c(ccc2n1)OC[C@H](CNC[C@H]1CCc2[nH]c4c(F)cc(F)cc4c2C1)O3.Cl.Cl [Example 10, N-{[(3S)-6,8-difluoro-2,3,4,9-tetrahydro-1H-carbazol-3-yl]methyl}-N-{[(2S)-8-methyl-2,3-dihydro[1,4]dioxino[2,3-f]quinolin-2-yl]methyl}amine dihydrochloride] | – | 0.00495 | 0.0113 | 267 to 275 | 0.249 | – | –
Cc1ccc2c3c(ccc2n1)OC[C@H](CNCC1CCc2c(c4cc(F)ccc4n2C)C1)O3 (mixture of isomers) [Example 6, N-[(6-fluoro-9-methyl-2,3,4,9-tetrahydro-1H-carbazol-3-yl)methyl]-N-{[(2S)-8-methyl-2,3-dihydro[1,4]dioxino[2,3-f]quinolin-2-yl]methyl}amine] | – | 0.00365 | 0.00901 | 57 to 62 | 0.532 | – | –
Cc1ccc2c3c(ccc2n1)OC[C@H](CNCC1CCc2[nH]c4cccc(F)c4c2C1)O3.Cl.Cl (stereo partly drawn) [Example 11, [(5-fluoro-2,3,4,9-tetrahydro-1H-carbazol-3-yl)methyl]{[(2S)-8-methyl-2,3-dihydro[1,4]dioxino[2,3-f]quinolin-2-yl]methyl}amine dihydrochloride] | – | 0.0167 | 0.124 | 220 to 230 | 0.0492 | – | –
Cc1ccc2c3c(ccc2n1)OC[C@H](CNCC1CCc2c(c4c(F)cccc4n2C)C1)O3 (stereo partly drawn) [Example 12, N-[(5-fluoro-9-methyl-2,3,4,9-tetrahydro-1H-carbazol-3-yl)methyl]-N-{[(2S)-8-methyl-2,3-dihydro[1,4]dioxino[2,3-f]quinolin-2-yl]methyl}amine] | – | 0.00054 | 0.18 | 84 to 90 | 0.0267 | – | –
Cc1ccc2c3c(ccc2n1)OC[C@H](CNC[C@H]1CCc2[nH]c4ccc(C#N)cc4c2C1)O3.Cl.Cl [Example 14, (3S)-3-[({[(2S)-8-methyl-2,3-dihydro[1,4]dioxino[2,3-f]quinolin-2-yl]methyl}amino)methyl]-2,3,4,9-tetrahydro-1H-carbazole-6-carbonitrile dihydrochloride] | – | 0.0136 | 0.00361 | 236 to 241 | 0.0795 | – | –
Cc1ccc2c3c(ccc2n1)OC[C@H](CNCC1CCc2[nH]c4ccc(F)cc4c2C1)O3 (mixture of isomers) [Example 2, N-[(6-fluoro-2,3,4,9-tetrahydro-1H-carbazol-3-yl)methyl]-N-{[(2S)-8-methyl-2,3-dihydro[1,4]dioxino[2,3-f]quinolin-2-yl]methyl}amine] | – | 0.00136 | 0.00526 | 89 to 97 | 0.0072 | – | –
Cc1ccc2c3c(ccc2n1)OC[C@H](CNC[C@@H]1CCc2[nH]c4c(F)cc(F)cc4c2C1)O3.Cl.Cl [Example 9, N-{[(3R)-6,8-difluoro-2,3,4,9-tetrahydro-1H-carbazol-3-yl]methyl}-N-{[(2S)-8-methyl-2,3-dihydro[1,4]dioxino[2,3-f]quinolin-2-yl]methyl}amine dihydrochloride] | – | 0.0037 | 0.0576 | 260 to 272 | 0.105 | – | –
Cc1ccc2c3c(ccc2n1)OC[C@H](CN(CC1CCc2c(c4cc(F)ccc4n2C)C1)C1CCCCC1)O3 (stereo partly drawn) [Example 67, N-[(6-Fluoro-9-methyl-2,3,4,9-tetrahydro-1H-carbazol-3-yl)methyl]-N-{[(2S)-8-methyl-2,3-dihydro[1,4]dioxino[2,3-f]quinolin-2-yl]methyl}cyclohexanamine monohydrochloride monohydrate] | 0.505 ± 0.00955 | – | – | – | – | – | –
Cc1ccc2c3c(ccc2n1)OC[C@H](CNC[C@@H]1CCc2[nH]c4ccc(C#N)cc4c2C1)O3.Cl.Cl [Example 15, (3R)-3-[({[(2S)-8-methyl-2,3-dihydro[1,4]dioxino[2,3-f]quinolin-2-yl]methyl}amino)methyl]-2,3,4,9-tetrahydro-1H-carbazole-6-carbonitrile dihydrochloride] | – | 0.015 | 0.00225 | 254 to 258 | 0.888 | – | –
